From the NIST ThermoML archive (doi:10.1021/je200822w)
Numbers after ± are expanded uncertainties.

Tests used:
[1] = activity coefficient (dimensionless); of the first substance listed, at infinite dilution; xn = mol fraction of the nth substance listed; conditions: 101 kPa, Liquid, Chromatography, x1 = 0
[2] = 101.33 kPa, Liquid

| SMILES | activity coefficient ([1]; 318.15 K) | activity coefficient ([1]; 323.15 K) | activity coefficient ([1]; 333.15 K) | activity coefficient ([1]; 343.15 K) | activity coefficient ([1]; 353.13 K) | activity coefficient ([1]; 353.15 K) | mass density ([2]; 283.15 K) [kg/m3] | mass density ([2]; 293.15 K) [kg/m3] | mass density ([2]; 303.15 K) [kg/m3] | mass density ([2]; 313.15 K) [kg/m3] | mass density ([2]; 323.15 K) [kg/m3] | mass density ([2]; 333.15 K) [kg/m3] | mass density ([2]; 343.15 K) [kg/m3] |
| --- | --- | --- | --- | --- | --- | --- | --- | --- | --- | --- | --- | --- | --- |
| Cc1cccc(C)c1 [1,3-dimethylbenzene] + CCCC[N+]1(C)CCCC1.N#CN=C=[N-] | 3.46 ± 0.24 | 3.5 ± 0.24 | 3.56 ± 0.24 | 3.61 ± 0.25 |  | 3.67 ± 0.25 |  |  |  |  |  |  |  |
| FC(F)(F)C(Cl)Br (configuration not stated) [1-bromo-1-chloro-2,2,2-trifluoroethane] + CCCC[N+]1(C)CCCC1.N#CN=C=[N-] | 0.568 ± 0.041 | 0.606 ± 0.042 | 0.694 ± 0.047 | 0.776 ± 0.051 |  | 0.866 ± 0.055 |  |  |  |  |  |  |  |
| CCCC[N+]1(C)CCCC1.N#CN=C=[N-] [1-butyl-1-methylpyrrolidinium dicyanamide] |  |  |  |  |  |  | 1021.93 ± 0.57 | 1016.26 ± 0.55 | 1010.64 ± 0.53 | 1005.08 ± 0.51 | 999.56 ± 0.5 | 994.1 ± 0.51 | 988.69 ± 0.53 |
| CC(C)=O [acetone] + CCCC[N+]1(C)CCCC1.N#CN=C=[N-] | 0.905 ± 0.057 | 0.917 ± 0.058 | 0.942 ± 0.059 | 0.963 ± 0.061 |  | 0.986 ± 0.062 |  |  |  |  |  |  |  |
| CC#N [acetonitrile] + CCCC[N+]1(C)CCCC1.N#CN=C=[N-] | 0.67 ± 0.045 | 0.676 ± 0.046 | 0.68 ± 0.046 | 0.684 ± 0.046 |  | 0.687 ± 0.046 |  |  |  |  |  |  |  |
| c1ccccc1 [benzene] + CCCC[N+]1(C)CCCC1.N#CN=C=[N-] | 1.41 ± 0.09 | 1.42 ± 0.09 | 1.46 ± 0.1 | 1.49 ± 0.1 |  | 1.53 ± 0.1 |  |  |  |  |  |  |  |
| CCC(C)=O [butanone] + CCCC[N+]1(C)CCCC1.N#CN=C=[N-] | 1.26 ± 0.08 | 1.27 ± 0.08 | 1.32 ± 0.09 | 1.33 ± 0.09 |  | 1.35 ± 0.09 |  |  |  |  |  |  |  |
| C1CCCCC1 [cyclohexane] + CCCC[N+]1(C)CCCC1.N#CN=C=[N-] | 21.1 ± 1.4 | 20.6 ± 1.4 | 19.5 ± 1.3 | 18.5 ± 1.3 |  | 17.7 ± 1.2 |  |  |  |  |  |  |  |
| ClCCl [dichloromethane] + CCCC[N+]1(C)CCCC1.N#CN=C=[N-] | 0.541 ± 0.04 | 0.558 ± 0.04 | 0.591 ± 0.042 | 0.623 ± 0.043 |  | 0.655 ± 0.045 |  |  |  |  |  |  |  |
| CCc1ccccc1 [ethylbenzene] + CCCC[N+]1(C)CCCC1.N#CN=C=[N-] | 3.52 ± 0.24 | 3.55 ± 0.24 | 3.6 ± 0.25 | 3.65 ± 0.25 |  | 3.69 ± 0.25 |  |  |  |  |  |  |  |
| CCC1CCCCC1 [ethylcyclohexane] + CCCC[N+]1(C)CCCC1.N#CN=C=[N-] | 50.1 ± 3.4 | 48.4 ± 3.3 | 45.1 ± 3.1 | 42.2 ± 2.9 |  | 39.6 ± 2.7 |  |  |  |  |  |  |  |
| CO [methanol] + CCCC[N+]1(C)CCCC1.N#CN=C=[N-] | 0.344 ± 0.032 | 0.344 ± 0.032 | 0.345 ± 0.032 | 0.347 ± 0.032 |  | 0.348 ± 0.032 |  |  |  |  |  |  |  |
| CC1CCCCC1 [methylcyclohexane] + CCCC[N+]1(C)CCCC1.N#CN=C=[N-] | 32.5 ± 2.2 | 31.7 ± 2.2 | 30 ± 2.1 | 28.4 ± 1.9 |  | 27.1 ± 1.9 |  |  |  |  |  |  |  |
| C[N+](=O)[O-] [nitromethane] + CCCC[N+]1(C)CCCC1.N#CN=C=[N-] | 0.592 ± 0.042 | 0.596 ± 0.042 | 0.604 ± 0.042 | 0.609 ± 0.043 |  | 0.615 ± 0.043 |  |  |  |  |  |  |  |
| C=CCCCCCC [oct-1-ene] + CCCC[N+]1(C)CCCC1.N#CN=C=[N-] | 47.3 ± 3.2 | 46.3 ± 3.2 | 44.4 ± 3 | 42.4 ± 2.9 |  | 40.8 ± 2.8 |  |  |  |  |  |  |  |
| ClC(Cl)(Cl)Cl [tetrachloromethane] + CCCC[N+]1(C)CCCC1.N#CN=C=[N-] | 2.04 ± 0.14 | 2.11 ± 0.14 | 2.25 ± 0.15 | 2.38 ± 0.16 |  | 2.5 ± 0.17 |  |  |  |  |  |  |  |
| C1CCOC1 [tetrahydrofuran] + CCCC[N+]1(C)CCCC1.N#CN=C=[N-] | 1.36 ± 0.09 | 1.38 ± 0.09 | 1.42 ± 0.09 | 1.46 ± 0.1 |  | 1.49 ± 0.1 |  |  |  |  |  |  |  |
| c1ccsc1 [thiophene] + CCCC[N+]1(C)CCCC1.N#CN=C=[N-] | 0.851 ± 0.055 | 0.868 ± 0.055 | 0.901 ± 0.057 | 0.931 ± 0.059 |  | 0.962 ± 0.06 |  |  |  |  |  |  |  |
| Cc1ccccc1 [toluene] + CCCC[N+]1(C)CCCC1.N#CN=C=[N-] | 2.17 ± 0.15 | 2.2 ± 0.15 | 2.26 ± 0.15 | 2.3 ± 0.16 |  | 2.35 ± 0.16 |  |  |  |  |  |  |  |
| ClC(Cl)Cl [trichloromethane] + CCCC[N+]1(C)CCCC1.N#CN=C=[N-] | 0.391 ± 0.034 | 0.411 ± 0.034 | 0.453 ± 0.036 | 0.496 ± 0.038 |  | 0.54 ± 0.039 |  |  |  |  |  |  |  |

More lines, now with the values ahead:

| activity coefficient ([1]; 318.15 K) | activity coefficient ([1]; 323.15 K) | activity coefficient ([1]; 333.15 K) | activity coefficient ([1]; 343.15 K) | activity coefficient ([1]; 353.13 K) | activity coefficient ([1]; 353.15 K) | mass density ([2]; 283.15 K) [kg/m3] | mass density ([2]; 293.15 K) [kg/m3] | mass density ([2]; 303.15 K) [kg/m3] | mass density ([2]; 313.15 K) [kg/m3] | mass density ([2]; 323.15 K) [kg/m3] | mass density ([2]; 333.15 K) [kg/m3] | mass density ([2]; 343.15 K) [kg/m3] | SMILES |
| --- | --- | --- | --- | --- | --- | --- | --- | --- | --- | --- | --- | --- | --- |
| 1.19 ± 0.08 | 1.23 ± 0.08 | 1.31 ± 0.09 | 1.39 ± 0.09 | 1.46 ± 0.1 |  |  |  |  |  |  |  |  | COCCOC [1,2-dimethoxyethane] + CCCC[N+]1(C)CCCC1.N#CN=C=[N-] |
| 6.04 ± 0.41 | 6.13 ± 0.42 | 6.29 ± 0.43 | 6.4 ± 0.44 |  | 6.53 ± 0.45 |  |  |  |  |  |  |  | COC(C)(C)C [2-methoxy-2-methylpropane] + CCCC[N+]1(C)CCCC1.N#CN=C=[N-] |
| 17.9 ± 1.2 | 17.9 ± 1.2 | 18 ± 1.2 | 17.9 ± 1.2 |  | 17.9 ± 1.2 |  |  |  |  |  |  |  | CC(C)OC(C)C [diisopropyl ether] + CCCC[N+]1(C)CCCC1.N#CN=C=[N-] |
| 1.26 ± 0.08 | 1.27 ± 0.08 | 1.29 ± 0.08 | 1.31 ± 0.09 |  | 1.33 ± 0.09 |  |  |  |  |  |  |  | COC(=O)OC [dimethyl carbonate] + CCCC[N+]1(C)CCCC1.N#CN=C=[N-] |
| 0.55 ± 0.04 | 0.545 ± 0.04 | 0.538 ± 0.039 | 0.53 ± 0.039 |  | 0.525 ± 0.039 |  |  |  |  |  |  |  | CCO [ethanol] + CCCC[N+]1(C)CCCC1.N#CN=C=[N-] |
| 2.33 ± 0.16 | 2.35 ± 0.16 | 2.39 ± 0.16 | 2.43 ± 0.17 |  | 2.47 ± 0.17 |  |  |  |  |  |  |  | CCOC(C)=O [ethyl acetate] + CCCC[N+]1(C)CCCC1.N#CN=C=[N-] |
| 76 ± 5.2 | 73.6 ± 5 | 68.9 ± 4.7 | 64.7 ± 4.4 |  | 60.9 ± 4.2 |  |  |  |  |  |  |  | CCCCCCC [heptane] + CCCC[N+]1(C)CCCC1.N#CN=C=[N-] |
| 1.51 ± 0.1 | 1.53 ± 0.1 | 1.56 ± 0.1 | 1.59 ± 0.11 |  | 1.63 ± 0.11 |  |  |  |  |  |  |  | COC(C)=O [methyl ethanoate] + CCCC[N+]1(C)CCCC1.N#CN=C=[N-] |
| 115 ± 8 | 110 ± 8 | 102 ± 7 | 95.2 ± 6.5 |  | 89.2 ± 6.1 |  |  |  |  |  |  |  | CCCCCCCC [octane] + CCCC[N+]1(C)CCCC1.N#CN=C=[N-] |
| 0.688 ± 0.046 | 0.68 ± 0.046 | 0.668 ± 0.045 | 0.656 ± 0.045 |  | 0.647 ± 0.044 |  |  |  |  |  |  |  | CCCO [propan-1-ol] + CCCC[N+]1(C)CCCC1.N#CN=C=[N-] |
| 0.771 ± 0.05 | 0.761 ± 0.05 | 0.746 ± 0.049 | 0.733 ± 0.049 |  | 0.724 ± 0.048 |  |  |  |  |  |  |  | CC(C)O [propan-2-ol] + CCCC[N+]1(C)CCCC1.N#CN=C=[N-] |
